From the supplement of paper PMC10307832

Tests used:
Assay in all cases: relative viability (nuclei count vs DMSO), 5 days (fraction); higher = more cells survive
[1] = compound: CCN(CCO)CCCC(C)Nc1ccnc2cc(Cl)ccc12 [Hydroxychloroquine] + Cc1nc(NC(=O)N2CCC[C@H]2C(N)=O)sc1-c1ccnc(C(C)(C)C(F)(F)F)c1 [Alpelisib] (partner 2 µM)
How it was run: (§1)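 Relative viability was taken as the ratio of nuclei in treated wells to nuclei in vehicle wells. Lung cancer cell lines in 1536-well plates received compounds by pin tool one day after seeding, either one drug alone or a fixed anchor-drug dose plus five library-drug doses (not always all listed) in √10 steps. Nuclei were counted on 4× images after 5 days of treatment, and values are medians of duplicate plates.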

[2] = compound: CCN(CCO)CCCC(C)Nc1ccnc2cc(Cl)ccc12 [Hydroxychloroquine] + Cc1cc(Nc2cc(N3CCN(C)CC3)nc(Sc3ccc(NC(=O)C4CC4)cc3)n2)n[nH]1 [Tozasertib] (partner 0.1 µM)
How it was run: as §1

[3] = compound: CCN(CCO)CCCC(C)Nc1ccnc2cc(Cl)ccc12 [Hydroxychloroquine] + Cc1nc(Nc2ncc(C(=O)Nc3c(C)cccc3Cl)s2)cc(N2CCN(CCO)CC2)n1 [Dasatinib] (partner 0.075 µM)
How it was run: as §1

[4] = compound: CCN(CCO)CCCC(C)Nc1ccnc2cc(Cl)ccc12 [Hydroxychloroquine] + CCNC(=O)c1noc(-c2cc(C(C)C)c(O)cc2O)c1-c1ccc(CN2CCOCC2)cc1 [Luminespib] (partner 0.01 µM)
How it was run: as §1

| Cell Line | relative viability ([1]; first compound 0.5 µM) | relative viability ([1]; first compound 1.581 µM) | relative viability ([1]; first compound 5 µM) | relative viability ([1]; first compound 15.81 µM) | relative viability ([1]; first compound 50 µM) | relative viability ([2]; first compound 0.5 µM) | relative viability ([2]; first compound 1.581 µM) | relative viability ([2]; first compound 5 µM) | relative viability ([2]; first compound 15.81 µM) | relative viability ([2]; first compound 50 µM) | relative viability ([3]; first compound 0.5 µM) | relative viability ([3]; first compound 1.581 µM) | relative viability ([3]; first compound 5 µM) | relative viability ([3]; first compound 15.81 µM) | relative viability ([3]; first compound 50 µM) | relative viability ([4]; first compound 0.5 µM) | relative viability ([4]; first compound 1.581 µM) | relative viability ([4]; first compound 5 µM) | relative viability ([4]; first compound 15.81 µM) | relative viability ([4]; first compound 50 µM) |
| --- | --- | --- | --- | --- | --- | --- | --- | --- | --- | --- | --- | --- | --- | --- | --- | --- | --- | --- | --- | --- |
| 201T | 1.03 | 0.916 | 1.02 | 1.03 | 1.01 | 0.941 | 0.954 | 0.951 | 0.966 | 1.08 | 0.582 | 0.578 | 0.598 | 0.606 | 0.608 | 0.992 | 1.04 | 1.07 | 1.03 | 1.05 |
| A-427 | 1.06 | 1.03 | 1.04 | 0.956 | 1.1 | 0.207 | 0.172 | 0.2 | 0.207 | 0.232 | 0.748 | 0.67 | 0.774 | 0.649 | 0.796 | 1.22 | 0.84 | 0.917 | 0.929 | 0.869 |
| ABC-1 | 1.27 | 1.03 | 0.924 | 0.949 | 0.942 | 0.162 | 0.136 | 0.166 | 0.172 | 0.165 | 0.543 | 0.644 | 0.521 | 0.562 | 0.565 | 0.495 | 0.47 | 0.668 | 0.564 | 0.785 |
| BEN | 1.04 | 1.04 | 0.981 | 1.06 | 1.32 | 0.606 | 0.465 | 0.551 | 0.501 | 0.622 | 0.273 | 0.332 | 0.316 | 0.267 | 0.331 | 0.382 | 0.331 | 0.309 | 0.311 | 0.33 |
| CAL-12T | 1.24 | 1.16 | 1.32 | 1.42 | 1.69 | 0.342 | 0.276 | 0.336 | 0.296 | 0.378 | 0.573 | 0.399 | 0.352 | 0.351 | 0.404 | 0.286 | 0.319 | 0.363 | 0.511 | 0.373 |
| COR-L23 | 0.739 | 0.813 | 0.899 | 0.961 | 0.906 | 0.191 | 0.218 | 0.267 | 0.209 | 0.225 | 0.472 | 0.543 | 0.533 | 0.421 | 0.534 | 0.683 | 0.662 | 0.818 | 0.948 | 0.705 |
| COR-L 105 | 1.13 | 1 | 1.08 | 0.765 | 0.87 | 0.353 | 0.349 | 0.376 | 0.376 | 0.333 | 0.284 | 0.384 | 0.34 | 0.298 | 0.272 | 0.883 | 0.718 | 0.579 | 0.709 | 0.882 |
| Calu-6 | 1.01 | 0.881 | 0.896 | 0.939 | 0.924 | – | – | – | – | – | – | – | – | – | – | – | – | – | – | – |
| ChaGo-K-1 | – | – | – | – | – | 0.224 | 0.18 | 0.222 | 0.228 | 0.233 | 0.626 | 0.593 | 0.537 | 0.593 | 0.626 | 0.615 | 0.626 | 0.55 | 0.594 | 0.643 |
| EKVX | 0.964 | 0.867 | 0.844 | 0.846 | 0.912 | 0.401 | 0.316 | 0.38 | 0.374 | 0.494 | 0.512 | 0.502 | 0.495 | 0.535 | 0.337 | 0.894 | 0.887 | 0.836 | 0.836 | 0.865 |
| EMC-BAC-2 | 0.736 | 0.708 | 0.767 | 0.727 | 0.75 | 0.307 | 0.289 | 0.31 | 0.286 | 0.258 | 0.309 | 0.381 | 0.347 | 0.329 | 0.345 | 1.2 | 1.03 | 1.14 | 1.18 | 1.19 |
| EPLC-272H | 0.928 | 0.858 | 0.94 | 0.998 | 0.919 | 0.262 | 0.152 | 0.26 | 0.257 | 0.287 | 0.342 | 0.441 | 0.333 | 0.335 | 0.347 | 0.188 | 0.388 | 0.264 | 0.289 | 0.33 |
| H3255 | 0.759 | 0.612 | 0.727 | 0.675 | 0.72 | 0.687 | 0.558 | 0.682 | 0.796 | 0.677 | 0.367 | 0.386 | 0.3 | 0.281 | 0.369 | 0.966 | 0.874 | 0.912 | 0.819 | 0.742 |
| HARA | 0.763 | 0.856 | 0.863 | 0.805 | 0.841 | 0.221 | 0.0946 | 0.0888 | 0.11 | 0.099 | 0.287 | 0.262 | 0.253 | 0.29 | 0.299 | 1.15 | 1.09 | 0.789 | 0.542 | 1.01 |
| HCC-15 | 0.925 | 0.841 | 0.839 | 0.879 | 0.909 | 0.392 | 0.399 | 0.412 | 0.321 | 0.441 | 0.621 | 0.578 | 0.581 | 0.609 | 0.627 | 0.433 | 0.39 | 0.25 | 0.252 | 0.503 |
| HCC-44 | 0.815 | 0.838 | 0.86 | 0.922 | 0.902 | 1.18 | 0.937 | 0.895 | 0.934 | 1.3 | – | – | – | – | – | 1.12 | 0.93 | 1.19 | 1.19 | 1.23 |
| HCC-78 | 0.394 | 0.299 | 0.316 | 0.331 | 0.31 | 0.438 | 0.459 | 0.478 | 0.305 | 0.466 | 0.529 | 0.421 | 0.495 | 0.374 | 0.375 | – | – | – | – | – |
| HCC-366 | 0.569 | 0.375 | 0.368 | 0.434 | 0.482 | 0.109 | 0.132 | 0.138 | 0.0907 | 0.144 | 0.739 | 0.731 | 0.624 | 0.768 | 0.719 | – | – | – | – | – |
